{"source": "PubChem BioAssay AID2610", "about": "(Broad Institute, 2010)", "note": "pEC50: −log10 of the molar value. Results filed as inconclusive are left out. The source made the active and inactive calls.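 How the source made its calls: active means EC50 no more than tenfold above the top concentration tested, with valid fit and all samples agreeing; inconclusive means flat fit at 30 to 70% inhibition, poor fit, or split samples; inactive means EC50 beyond tenfold the top concentration tested.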"}
{"test_system": "BJeLR fibroblast viability, Alamar Blue fluorescence, 48 h", "test": "cytotoxicity toward RAS-transformed BJeLR fibroblasts, dose response, cell-based, alamar blue fluorescence, 48 h, cherrypicked samples (AID 2610);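 further: BJ fibroblasts with hTERT plus SV40 large and small T and HRAS V12; EC50 for loss of viable cells so potency reflects cytotoxic compounds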"}
{"smiles": "O=Cc1ccc(O)c2ncccc12", "pEC50": 6.33}
{"smiles": "O=C(COc1ccc([N+](=O)[O-])cc1)Nc1ccc(C(=O)NCc2cccnc2)cc1", "EC50": "> 13.3 µM (inactive)"}
{"smiles": "Nc1nc(N)c2c(ccc3nccc32)[nH]1", "EC50": "> 13.3 µM (inactive)"}
{"smiles": "CCc1c(C)c(C#N)c2nc3ccccc3n2c1Cl", "pEC50": 6.26}
{"smiles": "CNC1=C(N(C(C)=O)c2ccc(Br)cc2)C(=O)c2ccccc2C1=O", "pEC50": 5.87}
{"smiles": "COc1cc(C2CC(c3cccs3)=NN2C(=O)CCl)ccc1OC(F)F", "note": "(stereo unspecified)", "pEC50": 6.57}
{"smiles": "O=C(c1cc([N+](=O)[O-])ccc1N1CCOCC1)N1CCN(c2ccccc2)CC1", "pEC50": "> 6.98"}
{"smiles": "FC(F)(F)c1nnc2c(Sc3ccccc3)nc3ccc(Cl)cc3n12", "pEC50": 6.24}
{"smiles": "CCOC(=O)c1ccc(NC(=O)Nc2ccon2)cc1", "pEC50": "> 6.98"}
{"smiles": "Cc1nn(-c2ccccc2)c(Cl)c1CN(C(=O)CCl)c1ccc(Cl)cc1", "pEC50": 6.28}
{"smiles": "CCN1CCN(CCNC(=O)c2ccc(/C=C3/Sc4ccccc4N(Cc4ccccc4C)C3=O)cc2)CC1", "EC50": "> 13.3 µM (inactive)"}
{"smiles": "CC(C)c1onc(C(=O)N2CCN(C(c3ccccc3)c3ccccc3)CC2)c1[N+](=O)[O-]", "pEC50": 6.28}
{"smiles": "CCCCOc1ccc(Br)cc1/C(C)=N/NC1=NCCN1", "pEC50": 6.23}
{"smiles": "CC(=O)c1ccc(Oc2cc(C)nc(-n3nc(C)cc3C)n2)cc1", "pEC50": "> 6.98"}
{"smiles": "CCCCN=C[C@]12CCC(O)CC1(O)CCC1[C@@H]2CC[C@]2(C)[C@H](C3C=CC(=O)O3)CCC12O", "note": "(stereo partly specified)", "pEC50": 6.50}
{"smiles": "COc1ccc(N(C(=O)CCl)C(C(=O)NCCc2ccccc2)c2cccs2)cc1", "note": "(stereo unspecified)", "pEC50": 6.37}
{"smiles": "COc1ccc2c(c1)sc(N)[n+]2Cc1cc(C)cc2cccnc12", "pEC50": 6.58}
{"smiles": "COc1ccccc1N(C(=O)CCl)c1cn(C(C)=O)c2ccccc12", "pEC50": 6.14}
{"smiles": "ClC1=C(Cl)C(Cl)=C(Cl)C1=C/C=C/c1ccccc1", "pEC50": 5.98}
{"smiles": "Cc1cc(C)cc(NS(=O)(=O)c2ccc(-c3cnc(C4CC4)o3)cc2)c1", "pEC50": "> 6.98"}
{"smiles": "Cc1cc(C)c2nc(C)cc(N/N=C/c3ccc(O)cc3)c2c1", "pEC50": 6.24}
{"smiles": "O=c1c2ccccc2nc(/C=C/c2ccc([N+](=O)[O-])o2)n1-c1ccc(O)cc1", "pEC50": 5.44}
{"smiles": "COc1ccccc1C(=O)Nc1nc2ccccc2[nH]1", "EC50": "> 13.3 µM (inactive)"}
{"smiles": "CCOc1ccc2nc(NC(=O)c3ccoc3C)sc2c1", "EC50": "> 13.3 µM (inactive)"}
{"smiles": "CC(C)(C)c1nnc(N/N=C/c2cc(Br)ccc2O)n(N)c1=O", "pEC50": 5.85}
{"smiles": "Nc1nc(CCl)nc(Nc2cccc3ccccc23)n1", "pEC50": 6.31}
{"smiles": "COc1cc([C@@H]2c3cc4c(cc3[C@@H](NC3CCN(Cc5ccccc5)CC3)[C@H]3COC(=O)[C@H]23)OCO4)cc(OC)c1O", "pEC50": 6.88}
{"smiles": "CCCCCCCCCCCCn1ccc(=N)cc1", "pEC50": 6.28}
{"smiles": "CC(C)C(=O)Nc1ccc(C(=O)NCc2cccnc2)cc1", "pEC50": 6.13}
{"smiles": "Nc1nc(CCl)nc(Nc2ccc3ccccc3c2)n1", "pEC50": 6.72}
{"smiles": "CN(Cc1cnc2nc(N)nc(N)c2n1)c1ccc(C(=O)N[C@@H](CCC(=O)O)C(=O)O)cc1", "EC50": "> 13.3 µM (inactive)"}
{"smiles": "C[C@H]1O[C@@H](O[C@H]2[C@@H](O)C[C@H](O[C@H]3[C@@H](O)C[C@H](O[C@H]4CC[C@@]5(C)[C@H](CC[C@@H]6[C@@H]5C[C@@H](O)[C@]5(C)[C@@H](C7=CC(=O)OC7)CC[C@]65O)C4)O[C@@H]3C)O[C@@H]2C)C[C@H](O)[C@@H]1O", "pEC50": "> 6.98"}
{"smiles": "Cc1ccc(C)c(NS(=O)(=O)c2ccc(-c3cnc(C4CC4)o3)cc2)c1", "pEC50": "> 6.98"}
{"smiles": "COc1ccc(NC(=O)CN(C)S(=O)(=O)c2ccc3[nH]c(=O)oc3c2)cc1", "EC50": "> 13.3 µM (inactive)"}
{"smiles": "CCN(CC)c1ccc(/C=N/NC(=O)c2ccc3nc[nH]c3c2)c(O)c1", "pEC50": 5.82}
{"smiles": "COc1ccccc1C1C2=C(COC2=O)Nc2cc3c(cc21)OCO3", "note": "(stereo unspecified)", "pEC50": "> 6.98"}
{"smiles": "COc1ccc(C2=CC(=O)C=CC2=O)cc1", "EC50": "> 13.3 µM (inactive)"}
{"smiles": "CC(C)Oc1ccccc1C1CC(=O)Nc2cc3c(cc21)OCCO3", "note": "(stereo unspecified)", "pEC50": 6.51}
{"smiles": "Cn1ncc2c(O/N=C(\\N)c3ccc(C(C)(C)C)cc3)ncnc21", "pEC50": 5.63}
{"smiles": "COc1ccc2nc(C)cc(N/N=C/c3ccc(F)cc3)c2c1", "pEC50": 6.53}
{"smiles": "COc1ccc(C(C(=O)NC2CCCCC2)N(C(=O)CCl)c2cccc(Cl)c2)cc1", "note": "(stereo unspecified)", "pEC50": "> 7.14"}
{"smiles": "CCN1/C(=C\\C=C\\C2=[N+](CC)c3ccccc3C2(C)C)C(C)(C)c2ccccc21", "pEC50": 6.62}
{"smiles": "O=C(N/N=C/c1cccs1)c1cc(-c2ccncc2)nc2ccccc12", "pEC50": 6.95}
{"smiles": "O=S(=O)(c1ccc2c(c1)C(=NO)c1cc(S(=O)(=O)N3CCCCC3)ccc1-2)N1CCCCC1", "pEC50": "> 6.56"}
{"smiles": "CCOc1ccc(Nc2nc(N)nc(CCl)n2)cc1", "pEC50": 6.41}
{"smiles": "CCOc1ccc(C2=Nn3c(nnc3-c3ccccc3OC)SC2)cc1", "pEC50": "> 6.98"}
{"smiles": "CC1CCCN(c2ccc([N+](=O)[O-])cc2C(=O)c2ccccc2)C1", "note": "(stereo unspecified)", "pEC50": "> 6.98"}
{"smiles": "C(=N\\Nc1nc2ccccc2[nH]1)/c1ccc2ncccc2c1", "EC50": "> 13.3 µM (inactive)"}
{"smiles": "CC[C@@]1(O)C(=O)OCc2c1cc1n(c2=O)Cc2cc3ccccc3nc2-1", "pEC50": "> 7.52"}
{"smiles": "Cc1occc1C(=O)N/N=C/c1ccc(-c2ccccc2)cc1", "EC50": "> 13.3 µM (inactive)"}
{"smiles": "CCOC(=O)c1c(C)[nH]c2c1-c1ccccc1C(=O)C2=O", "pEC50": 6.31}
{"smiles": "CCOc1cc(/C=C2\\COc3ccccc3C2=O)cc(Br)c1OCC(=O)N(C)C", "pEC50": 5.51}
{"smiles": "COc1ccc(/C=C2\\CN(Cc3ccccc3)C/C(=C\\c3ccc(OC)c(O)c3)C2=O)cc1O", "pEC50": 6.25}
{"smiles": "CCN1C(=O)C(=Cc2cccc(OC)c2Oc2ccc([N+](=O)[O-])cc2[N+](=O)[O-])SC1=S", "pEC50": 5.98}
{"smiles": "COCc1c(C(C)C)nc(C(C)C)c(/C=C/[C@@H](O)C[C@@H](O)CC(=O)O)c1-c1ccc(F)cc1", "pEC50": "> 6.98"}
{"smiles": "Cc1ccc(N2C(=O)c3cccc4c([N+](=O)[O-])ccc(c34)C2=O)c2cccnc12", "pEC50": 6.28}
{"smiles": "CCSc1cc(C2C(C#N)=C(N)Oc3n[nH]c(C)c32)c(C)o1", "note": "(stereo unspecified)", "pEC50": 4.94}
{"smiles": "Oc1ccccc1N=Nc1nc(-c2ccccc2)c(-c2ccccc2)[nH]1", "pEC50": 6.75}
{"smiles": "CC(=O)Nc1ccc(NC(=O)CN(c2cccc([N+](=O)[O-])c2)S(C)(=O)=O)cc1", "pEC50": 5.85}
{"smiles": "COc1cccc(N(C(=O)CCl)C(C(=O)NCCc2ccccc2)c2cccs2)c1", "note": "(stereo unspecified)", "pEC50": 6.67}
{"smiles": "Cc1cccc(Nc2nc(N)nc(CCl)n2)c1C", "pEC50": 6.33}
{"smiles": "COc1cc(OC)c(C2=NOC(C(=O)NCc3cccs3)C2)cc1Cl", "note": "(stereo unspecified)", "pEC50": 5.63}
{"smiles": "O=C(N/N=C/c1ccc([N+](=O)[O-])o1)c1cc2ccccc2o1", "pEC50": 5.12}
{"smiles": "CCOc1ccc(N=Cc2c(C)[nH]n(-c3nc4ccccc4[nH]3)c2=O)cc1", "EC50": "> 13.3 µM (inactive)"}
{"smiles": "CCC1=Nc2cc(C(=O)NCc3ccco3)ccc2Sc2ccc(C)cc21", "pEC50": "> 6.98"}
{"smiles": "CCOCCOC(=O)c1[nH]c2c(c1C)C(=O)CC(c1ccccc1)C2", "note": "(stereo unspecified)", "pEC50": 6.58}
{"smiles": "CCOC(=O)/C(=C\\c1cccnc1)C(=O)c1cc(C(C)=O)c(Nc2ccccc2)s1", "pEC50": 6.24}
{"smiles": "O=[N+]([O-])c1ccccc1N/N=C\\c1ccccc1Cl", "EC50": "> 13.3 µM (inactive)"}
{"smiles": "COc1cc([C@H]2c3[nH]c4ccccc4c3C[C@H]3C(=O)N4[C@@H](c5cc(OC)c(OC)c(OC)c5)c5[nH]c6ccccc6c5C[C@H]4C(=O)N23)cc(OC)c1OC", "EC50": "> 13.3 µM (inactive)"}
{"smiles": "C=C1C(=O)C=C2CN(C(=O)c3ccccc3)[C@@](Cc3ccc(F)cc3)(C(=O)OC)[C@@H]12", "pEC50": 6.85}
{"smiles": "COc1ccc(S(=O)(=O)N2c3ccc(F)cc3CCC2C)cc1", "note": "(stereo unspecified)", "pEC50": "> 6.98"}
{"smiles": "O=C1c2cccc3cc([N+](=O)[O-])cc(c23)C(=O)N1CCN1CCCC1", "pEC50": 6.39}
{"smiles": "O=S1(=O)C=C(Sc2nc3ccccc3s2)c2ccccc21", "pEC50": 6.50}
{"smiles": "O=C(c1cccs1)c1no[n+]([O-])c1C(=O)c1cccs1", "pEC50": 5.52}
{"smiles": "C/C(=N\\Nc1ncc(Cl)cc1Cl)c1ccccn1", "pEC50": "> 7.65"}
{"smiles": "COc1ccc(-c2cc3nc(C)n(N)c(=O)c3s2)cc1", "EC50": "> 13.3 µM (inactive)"}
{"smiles": "O=[N+]([O-])c1c(Nc2ccccn2)cc(Cl)c2nonc12", "pEC50": 5.68}
{"smiles": "COc1ccc(C)cc1Nc1c2c(nc3ccccc13)CCC2", "pEC50": 6.53}
{"smiles": "C/C(=N\\Nc1ncnc2sc(C)c(C)c12)c1ccccn1", "pEC50": "> 6.98"}
{"smiles": "O=C(N/N=C/c1ccccc1Cl)c1[nH]c2ccc(Br)cc2c1-c1ccccc1", "pEC50": 6.83}
{"smiles": "CCn1cc(C(=O)NCc2ccco2)c(=O)c2cc(S(=O)(=O)N3CC(C)CC(C)C3)ccc21", "note": "(stereo unspecified)", "EC50": "> 13.3 µM (inactive)"}
{"smiles": "CCOc1ccc(CC(=O)Nc2ccc(NC(=O)c3ccco3)cc2)cc1OCC", "pEC50": 5.69}
{"smiles": "c1ccc(-c2noc(-c3ccc4c(c3)OCO4)n2)nc1", "EC50": "> 13.3 µM (inactive)"}
{"smiles": "COCCCNC(=O)c1ccc2c3c(onc13)-c1ccccc1C2=O", "pEC50": 5.50}
{"smiles": "C=C1C(=O)O[C@@H]2C[C@@H](C)[C@@H]3C=CC(=O)[C@@]3(C)[C@@H](OC(=O)CC(=O)O[C@H]3[C@@H]4C(=C)C(=O)O[C@@H]4C[C@@H](C)[C@@H]4C=CC(=O)[C@]43C)[C@H]12", "pEC50": "> 7.38"}
{"smiles": "Cc1ccccc1Nc1nc(N)nc(CCl)n1", "pEC50": 5.64}
{"smiles": "CSc1ccc(COC(=O)c2cc([N+](=O)[O-])ccc2N2CCOCC2)cc1", "pEC50": "> 6.98"}
{"smiles": "O=C(CCCCCCCCCCC(=O)NCc1cccnc1)NCc1cccnc1", "EC50": "> 13.3 µM (inactive)"}
{"smiles": "O=C(c1ccc2c3n(nc2c1)-c1ccccc1CO3)N1CCOCC1", "EC50": "> 13.3 µM (inactive)"}
{"smiles": "O=S(=O)(c1ccc(Cl)cc1)c1snnc1-c1ccccc1", "pEC50": 6.23}
{"smiles": "O=C(NC(Nc1nc2ccc([N+](=O)[O-])cc2s1)(C(F)(F)F)C(F)(F)F)c1ccccc1", "pEC50": 6.62}
{"smiles": "CC1(C)N=C(N)N=C(N)N1c1ccccc1", "EC50": "> 13.3 µM (inactive)"}
{"smiles": "O=C(Cc1ccc(Cl)cc1)c1c[nH]c(C(=O)NCc2cccnc2)c1", "EC50": "> 13.3 µM (inactive)"}
{"smiles": "C/C(=N\\Nc1ccc2nncn2n1)c1ccccn1", "pEC50": 5.94}
{"smiles": "COc1ccc(-c2cc3nc(C)cc(N)n3n2)cc1", "EC50": "> 13.3 µM (inactive)"}
{"smiles": "CSc1cc(-c2ccccc2)n(Cc2ccccc2Cl)c(=O)c1C#N", "pEC50": 6.15}
{"smiles": "CCOC(=O)c1[nH]c(C)c(C(=O)N2CCc3ccccc32)c1C", "pEC50": "> 6.98"}
{"smiles": "O=C(/C=C/c1ccc([N+](=O)[O-])o1)NNC(=O)c1ccc(F)cc1", "pEC50": 5.58}
{"smiles": "O=c1cnnc(N/N=C/c2ccccn2)[nH]1", "pEC50": 5.99}
{"smiles": "O=C(Oc1ccc(-c2nc(-c3ccccn3)no2)cc1)c1ccccc1", "EC50": "> 13.3 µM (inactive)"}
{"smiles": "Cc1cccc(C)c1NS(=O)(=O)c1ccc(-c2cnc(C3CC3)o2)cc1", "pEC50": "> 6.98"}
